Results reported in the NIST ThermoML archive (doi:10.1021/je100131c).
Numbers after ± are expanded uncertainties.

What was measured:
[1] = Adiabatic calorimetry
[2] = molar heat capacity at constant pressure; conditions: 101.33 kPa

CCCn1cc[n+](C)c1.N[C@@H](CCC(=O)O)C(=O)[O-]
Conditions | Glass transition temperature [°C]
[1] | -33 ± 3

[2]
Conditions | molar heat capacity at constant pressure [J/K/mol]
86.07 K, Glass | 150.25 ± 1.4
88.05 K, Glass | 152.63 ± 1.4
90.01 K, Glass | 154.9 ± 1.4
91.97 K, Glass | 157.5 ± 1.4
93.95 K, Glass | 159.49 ± 1.4
95.92 K, Glass | 162.14 ± 1.4
97.89 K, Glass | 164.13 ± 1.5
99.85 K, Glass | 166.66 ± 1.5
102.59 K, Glass | 169.25 ± 1.5
105.33 K, Glass | 173.04 ± 1.5
107.28 K, Glass | 175.8 ± 1.5
109.24 K, Glass | 177.98 ± 1.5
111.23 K, Glass | 179.21 ± 1.5
113.2 K, Glass | 181.07 ± 1.5
115.14 K, Glass | 183.75 ± 1.5
117.1 K, Glass | 185.58 ± 1.5
119.09 K, Glass | 186.96 ± 1.6
121.06 K, Glass | 188.82 ± 1.6
123 K, Glass | 191.13 ± 1.6
124.97 K, Glass | 193.29 ± 1.6
126.97 K, Glass | 194.36 ± 1.6
128.94 K, Glass | 196.26 ± 1.6
130.9 K, Glass | 199.43 ± 1.6
132.84 K, Glass | 200.78 ± 1.6
134.79 K, Glass | 203.07 ± 1.6
136.78 K, Glass | 204.43 ± 1.6
138.75 K, Glass | 206.24 ± 1.6
140.7 K, Glass | 207.69 ± 1.6
142.65 K, Glass | 208.89 ± 1.6
144.61 K, Glass | 211.05 ± 1.6
146.6 K, Glass | 212.89 ± 1.6
148.57 K, Glass | 215.15 ± 1.7
150.53 K, Glass | 216.91 ± 1.7
153.04 K, Glass | 219.16 ± 1.7
155.56 K, Glass | 221.42 ± 1.7
157.53 K, Glass | 223.77 ± 1.7
159.49 K, Glass | 225.64 ± 1.7
161.44 K, Glass | 227 ± 1.7
163.38 K, Glass | 228.24 ± 1.7
165.3 K, Glass | 230.3 ± 1.7
167.27 K, Glass | 232.18 ± 1.7
169.28 K, Glass | 234.1 ± 1.7
171.28 K, Glass | 236.74 ± 1.8
173.27 K, Glass | 237.97 ± 1.8
175.25 K, Glass | 240.31 ± 1.8
177.21 K, Glass | 242.87 ± 1.8
179.17 K, Glass | 243.7 ± 1.8
181.11 K, Glass | 245.51 ± 1.8
183.05 K, Glass | 248.04 ± 1.8
185.03 K, Glass | 250.2 ± 1.8
187.05 K, Glass | 252.7 ± 1.8
189.06 K, Glass | 255.28 ± 1.8
191.06 K, Glass | 257.14 ± 1.8
193.05 K, Glass | 259.68 ± 1.8
195.03 K, Glass | 262.63 ± 1.9
197.01 K, Glass | 264.18 ± 1.9
198.97 K, Glass | 266.54 ± 1.9
200.93 K, Glass | 268.59 ± 1.9
203.31 K, Glass | 271.02 ± 1.9
205.67 K, Glass | 273.69 ± 1.9
207.65 K, Glass | 277.76 ± 1.9
209.69 K, Glass | 281.69 ± 1.9
211.73 K, Glass | 283.31 ± 1.9
213.76 K, Glass | 284.6 ± 1.9
215.8 K, Glass | 286.92 ± 1.9
217.82 K, Glass | 290.11 ± 2
219.85 K, Glass | 294.21 ± 2
221.88 K, Glass | 296.62 ± 2
223.91 K, Glass | 297.46 ± 2
225.94 K, Glass | 299.66 ± 2
227.97 K, Glass | 300.73 ± 2
229.99 K, Glass | 302.48 ± 2
231.96 K, Glass | 310.06 ± 2
234 K, Glass | 323.45 ± 2.1
236.07 K, Glass | 333.04 ± 2.1
238.02 K, Glass | 358.09 ± 2.3
239.86 K, Glass | 407.73 ± 2.5
242.01 K, Glass | 462.82 ± 2.7
244.24 K, Liquid | 471 ± 2.7
246.18 K, Liquid | 472.35 ± 2.7
248.12 K, Liquid | 473.61 ± 2.7
250.04 K, Liquid | 475.54 ± 2.7
251.97 K, Liquid | 476.41 ± 2.7
253.9 K, Liquid | 477.37 ± 2.7
255.89 K, Liquid | 478.45 ± 2.7
257.87 K, Liquid | 480.19 ± 2.7
259.86 K, Liquid | 481.42 ± 2.7
261.91 K, Liquid | 483.73 ± 2.7
263.96 K, Liquid | 485.28 ± 2.7
266 K, Liquid | 486.86 ± 2.8
268.04 K, Liquid | 487.89 ± 2.8
270.07 K, Liquid | 489.67 ± 2.8
272.09 K, Liquid | 491.51 ± 2.8
274.12 K, Liquid | 493.23 ± 2.8
276.13 K, Liquid | 495.7 ± 2.8
278.15 K, Liquid | 497.67 ± 2.8
280.16 K, Liquid | 498.94 ± 2.8
282.16 K, Liquid | 501.05 ± 2.8
284.17 K, Liquid | 503.38 ± 2.8
286.16 K, Liquid | 505.39 ± 2.8
288.12 K, Liquid | 507.35 ± 2.8
290.06 K, Liquid | 509.26 ± 2.8
292.08 K, Liquid | 511.23 ± 2.8
294.05 K, Liquid | 513.1 ± 2.9
296.01 K, Liquid | 514.91 ± 2.9
297.97 K, Liquid | 516.83 ± 2.9
299.93 K, Liquid | 518.67 ± 2.9
301.88 K, Liquid | 520.07 ± 2.9
303.82 K, Liquid | 521.96 ± 2.9
305.77 K, Liquid | 523.25 ± 2.9
307.7 K, Liquid | 524.77 ± 2.9
309.64 K, Liquid | 526.25 ± 2.9
311.57 K, Liquid | 527.31 ± 2.9
313.5 K, Liquid | 528.82 ± 2.9
315.43 K, Liquid | 530.52 ± 2.9
317.41 K, Liquid | 531.97 ± 2.9
319.47 K, Liquid | 533.47 ± 2.9
321.52 K, Liquid | 534.99 ± 2.9
323.57 K, Liquid | 536.53 ± 3
325.61 K, Liquid | 538.93 ± 3
327.65 K, Liquid | 539.74 ± 3
329.68 K, Liquid | 541.83 ± 3
331.71 K, Liquid | 543.17 ± 3
333.73 K, Liquid | 544.98 ± 3
335.75 K, Liquid | 546.87 ± 3
337.76 K, Liquid | 549.25 ± 3
339.77 K, Liquid | 550.76 ± 3
341.77 K, Liquid | 553.01 ± 3
343.77 K, Liquid | 554.52 ± 3
345.76 K, Liquid | 557 ± 3
347.75 K, Liquid | 559.26 ± 3
349.74 K, Liquid | 561.22 ± 3
351.73 K, Liquid | 563.15 ± 3
353.72 K, Liquid | 565.12 ± 3.1
355.7 K, Liquid | 566.91 ± 3.1
357.68 K, Liquid | 568.06 ± 3.1
